Where two headings read alike, the source gives them in different places.
Key:
[1] = target: phosphorylated MEK1 (Homo sapiens, UniProt Q02750); test: MEK1 binding assay (HTRF, tracer displacement); conditions: for inhibition at 2 µM: read-out: % binding (2 µM); for inhibition at 20 µM: read-out: % binding (20 µM)
Method: The homogeneous time resolved fluorescence (HTRF) assay was performed on a Proxiplate-384 F plus solid back plate (Perkin Elmer, Waltham, MA. USA) with 5 nM GST tagged phosphorylated MEK1 (GST-MEK1), 2 nM europium-labeled anti-GST antibody (Eu-anti-GST), 20 nM kinase tracer 236 and test compound at a variety of concentrations. In the reaction mixture, GST-MEK1 forms a complex with the Eu-anti-GST and the tracer. Excitation of europium (the donor) using a 340-nm excitation filter results in energy transfer to the fluorophore of the tracer. This energy transfer is detected by an increase in the fluorescence emission of the tracer at 665 nm and a decrease in the fluorescence emission of europium at 615 nm. The FRET ratio was calculated by dividing the emission signal at 665 nm by the emission signal at 615 nm. A competitor compound such as a MEK inhibitor replaces the tracer from the complex and decreases the FRET ratio accordingly. The plate was incubated in dark at room temperature for 30 min before measuring the fluorescent emission of each well at 665 and 615 nm using a 340-nm excitation filter, 100-µs delay time, and 200-µs integration time, on a PHERAStar plate reader (BMG Labtech, Durham, NC, USA). […] Data shown as %Inhibition normalized to AZD6244 at 100 µM.

phosphorylated MEK1, sequence (Q02750 whole entry): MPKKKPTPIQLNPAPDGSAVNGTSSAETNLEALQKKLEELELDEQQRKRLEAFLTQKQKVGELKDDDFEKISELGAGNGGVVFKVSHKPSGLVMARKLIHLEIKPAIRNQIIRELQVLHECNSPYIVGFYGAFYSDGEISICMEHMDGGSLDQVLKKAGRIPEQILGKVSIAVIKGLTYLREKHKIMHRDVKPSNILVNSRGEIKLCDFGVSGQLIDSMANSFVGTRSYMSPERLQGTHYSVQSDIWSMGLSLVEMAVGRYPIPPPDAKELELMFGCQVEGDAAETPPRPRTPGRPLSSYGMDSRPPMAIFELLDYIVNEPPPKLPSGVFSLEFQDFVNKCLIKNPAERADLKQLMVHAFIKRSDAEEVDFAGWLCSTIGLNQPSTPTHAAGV

| Compound | inhibition at 2 µM [1] | inhibition at 20 µM [1] | melting point | IC50 [1] | binding affinity (in words) [1] | IC50 ([1]; HTRF binding to GST tagged phosphorylated MEK1, read-out: IC50) | inhibition at 100 µM [1] |
| --- | --- | --- | --- | --- | --- | --- | --- |
| CCCC(=O)Oc1cc2oc(=O)c(Cc3ccccc3)c(C)c2cc1Cl [Compound 41, 3-Benzyl-6-chloro-4-methyl-2-oxo-2H-chromen-7-yl butyrate] | 21% | 25.8% | 107 to 108 °C |  |  |  |  |
| CCCc1c(Cc2ccccc2)c(=O)oc2cc(OC(=O)C(C)(C)C)ccc12 [Compound 58, 3-Benzyl-2-oxo-4-propyl-2H-chromen-7-yl pivalate] | 43.2% | 19.1% | 138 to 139 °C |  |  |  |  |
| CCCc1c(Cc2ccccc2)c(=O)oc2cc(OC(=O)N(C)C)ccc12 [Compound 16, 3-Benzyl-2-oxo-4-propyl-2H-chromen-7-yl dimethylcarbamate] | 70.9% | 95.4% | 117 to 118 °C | 1040 nM |  |  |  |
| CCCc1c(Cc2ccc(F)cc2)c(=O)oc2cc(OS(=O)(=O)c3ccccc3)ccc12 [Compound 75, 3-(4-Fluorobenzyl)-2-oxo-4-propyl-2H-chromen-7-yl benzenesulfonate] | 21.6% | 13.8% |  |  |  |  |  |
| CCc1c(Cc2ccccc2)c(=O)oc2cc(OS(=O)(=O)c3ccccc3)ccc12 [Compound 71, 3-Benzyl-4-ethyl-2-oxo-2H-chromen-7-yl benzenesulfonate] | 31.1% | -2.35% |  |  |  |  |  |
| Cc1c(Cc2ccc(F)cc2)c(=O)oc2cc(OC(=O)c3ccccc3)ccc12 [Compound 66, 3-(4-Fluorobenzyl)-4-methyl-2-oxo-2H-chromen-7-yl benzoate] | 25.8% | 31% | 151 to 153 °C |  |  |  |  |
| O=C(c1ccccc1)c1cc2ccc(O)cc2oc1=O [Compound 85, 3-Benzoyl-7-hydroxycoumarin] | 23% | 20.5% |  |  |  |  |  |
| CCCc1c(Cc2ccc(F)cc2)c(=O)oc2cc(OC(=O)N(CC)CC)ccc12 [Compound 26, 3-(4-Fluorobenzyl)-2-oxo-4-propyl-2H-chromen-7-yl diethylcarbamate] | 35.2% | 37.5% | 51 to 52 °C |  |  |  |  |
| CCCc1c(Cc2ccc(F)cc2)c(=O)oc2cc(OC(=O)c3ccccc3)ccc12 [Compound 68, 3-(4-Fluorobenzyl)-2-oxo-4-propyl-2H-chromen-7-yl benzoate] | 26.1% | 45.6% | 95 to 96 °C |  |  |  |  |
| Cc1c(Cc2ccc(F)cc2)c(=O)oc2cc(OS(=O)(=O)c3ccccc3)ccc12 [Compound 74, 3-(4-Fluorobenzyl)-4-methyl-2-oxo-2H-chromen-7-yl benzenesulfonate] | 21.4% | 17% |  |  |  |  |  |
| Cc1c(Cc2ccccc2)c(=O)oc2cc(O)ccc12 [Compound 4b, 3-Benzyl-7-hydroxy-4-methyl-2H-chromen-2-one] | -0.81% | -6.03% |  |  |  |  |  |
| Cc1ccc(S(=O)(=O)Oc2ccc3c(C)c(Cc4ccccc4)c(=O)oc3c2)cc1 [Compound 76, 3-Benzyl-4-methyl-2-oxo-2H-chromen-7-yl 4-methylbenzenesulfonate] | 2.87% | -2.36% | 138 to 139 °C |  |  |  |  |
| CCc1c(Cc2ccc(F)cc2)c(=O)oc2cc(O)ccc12 [Compound 4g, 4-Ethyl-3-(4-fluorobenzyl)-7-hydroxy-2H-chromen-2-one] | 10.9% | 19.6% | 131 to 132 °C |  |  |  |  |
| COc1ccc2cc(Cc3ccccc3)c(=O)oc2c1 [Compound 83, 3-Benzyl-7-methoxy-2H-chromen-2-one] | 23% | 2.93% | 102 to 103 °C |  |  |  |  |
| CCCc1c(Cc2ccccc2)c(=O)oc2cc(OC(=O)N(CC)CC)ccc12 [Compound 23, 3-Benzyl-2-oxo-4-propyl-2H-chromen-7-yl diethylcarbamate] | 43.1% | 46.1% | 112 to 113 °C |  |  |  |  |
| CCC(=O)Oc1ccc2c(CC)c(Cc3ccc(F)cc3)c(=O)oc2c1 [Compound 39, 4-Ethyl-3-(4-fluorobenzyl)-2-oxo-2H-chromen-7-yl propionate] | 75.4% | 76.3% | 97 to 98 °C |  | active | 140 nM |  |
| CCc1c(Cc2ccc(F)cc2)c(=O)oc2cc(OS(=O)(=O)c3ccccc3)ccc12 [Compound 73, 4-Ethyl-3-(4-fluorobenzyl)-2-oxo-2H-chromen-7-yl benzenesulfonate] | 16.6% | 7.4% |  |  | inactive |  |  |
| Cc1c(Cc2ccccc2)c(=O)oc2cc(OS(=O)(=O)c3ccccc3)c(Cl)cc12 [Compound 70, 3-Benzyl-6-chloro-4-methyl-2-oxo-2H-chromen-7-yl benzenesulfonate] | 29.9% | 24.5% |  |  |  |  |  |
| CCCc1c(Cc2ccccc2)c(=O)oc2cc(OS(=O)(=O)c3ccccc3)ccc12 [Compound 72, 3-Benzyl-2-oxo-4-propyl-2H-chromen-7-yl benzenesulfonate] | 26% | 14% |  |  |  |  |  |
| CCc1c(Cc2ccccc2)c(=O)oc2cc(OS(=O)(=O)c3ccc(C)cc3)ccc12 [Compound 78, 3-Benzyl-4-ethyl-2-oxo-2H-chromen-7-yl 4-methylbenzenesulfonate] | 33.2% | 4.76% |  |  |  |  |  |
| CN(C)C(=O)Oc1ccc2cc(Cc3ccccc3)c(=O)oc2c1 [Compound 12, 3-benzyl-7-N,N-dimethylcarbamoyloxyl-2H-chromen-2-one] | 31.6% | 25.6% |  |  | disappearance of affinity |  |  |
| Cn1cnc2c(F)c(Nc3ccc(Br)cc3Cl)c(C(=O)NOCCO)cc21 [AZD6244, reference compound] |  |  |  |  |  |  | 100% |
| N#Cc1c(C(=O)c2ccccc2)c(=O)oc2cc(O)ccc12 [Compound 87, 3-Benzoyl-4-cyano-7-hydroxycoumarin] | 31.9% | 30% |  |  |  |  |  |
| CCCc1c(Cc2ccc(F)cc2)c(=O)oc2cc(OS(=O)(=O)c3ccc(C)cc3)ccc12 [Compound 82, 3-(4-Fluorobenzyl)-2-oxo-4-propyl-2H-chromen-7-yl 4-methylbenzenesulfonate] | 37.5% | 45.9% |  |  |  |  |  |
| Cc1c(Cc2ccccc2)c(=O)oc2cc(OS(=O)(=O)c3ccccc3)ccc12 [Compound 69, 3-Benzyl-4-methyl-2-oxo-2H-chromen-7-yl benzenesulfonate] | -11.3% | 2.32% |  |  |  |  |  |
| CCCc1c(Cc2ccccc2)c(=O)oc2cc(OS(=O)(=O)c3ccc(C)cc3)ccc12 [Compound 79, 3-Benzyl-2-oxo-4-propyl-2H-chromen-7-yl 4-methylbenzenesulfonate] | 24.6% | 11.7% |  |  |  |  |  |
| Cc1c(Cc2ccccc2)c(=O)oc2cc(O)c(Cl)cc12 [Compound 4c, 3-Benzyl-6-chloro-7-hydroxy-4-methyl-2H-chromen-2-one] | 15.8% | 5.1% |  |  |  |  |  |
| CCc1c(Cc2ccc(F)cc2)c(=O)oc2cc(OS(=O)(=O)c3ccc(C)cc3)ccc12 [Compound 80, 4-Ethyl-3-(4-fluorobenzyl)-2-oxo-2H-chromen-7-yl 4-methylbenzenesulfonate] | 33.1% | 16.5% |  |  | inactive |  |  |

From publication PMC6269873, “Substituted 3-Benzylcoumarins as Allosteric MEK1 Inhibitors: Design, Synthesis and Biological Evaluation as Antiviral Agents” (Molecules, 2013)
